Ki data for 11 compounds are collected here from patent US10035800B2 (AbbVie Inc., priority 2013, dated 2018).

The term Ki denotes a dissociation constant, usually derived from enzyme kinetics or from competition with a known ligand.

Assay [1] addresses T1, BRD4 (BDI_K57-E168) (Homo sapiens, UniProt O60885).
T1 construct: BD1: amino acids K57-E168; made in house
Put plainly: TR-FRET bromodomain binding assay, first bromodomain of BRD4. Conditions: TR-FRET assay protocol G (compound 0.92 μM-15 pM); 100 nM probe. The essentials: (§1)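 His-tagged BRD4 bromodomain (8 nM) was incubated with Eu-anti-His antibody (1 nM) and an Alexa647-labelled BET-inhibitor probe (100 nM for BDI, 30 nM for BDII) in pH 6.0 phosphate buffer with 2% DMSO for 1 h at room temperature. TR-FRET ratio was read, IC50 fitted by 4-parameter logistic, then converted to Ki.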
In general terms: TR-FRET usually uses a lanthanide donor and a delayed reading to cut background.

The target in assay [2] is T2, BRD4 (BDII_E352-M457) (Homo sapiens, UniProt O60885).
T2 construct: protocol; made in house
Nature of the assay: TR-FRET bromodomain binding assay, second bromodomain of BRD4. The following applies: TR-FRET assay protocol G (compound 0.92 μM-15 pM); 30 nM probe. In a few lines: as §1

Regarding `CC(C1CCOC1=O)N1Cc2c[nH]c3c(=O)n(C)cc(c23)-c2cc(CS(C)(=O)=O)ccc21` (stereo not shown) [Example 184, 10-methyl-7-((methylsulfonyl)methyl)-4-(1-(2-oxotetrahydrofuran-3-yl)ethyl)-3,4-dihydro-1H-1,4,10-triazadibenzo[cd,f]azulen-11(10H)-one], the results for the Ki in assay [1] and in assay [2] were 4.34 nM and 6.82 nM, respectively.
In the same order, the values of `CN1CCC(N2Cc3c[nH]c4c(=O)n(C)cc(c34)-c3cc(CS(C)(=O)=O)ccc32)C1` (stereo not shown) [Example 187] are 5.74 nM and 50 nM.
The like results for `CN1CCCC(N2Cc3c[nH]c4c(=O)n(C)cc(c34)-c3cc(CS(C)(=O)=O)ccc32)CC1` (stereo not shown) [Example 189] were, in that order, 5.82 nM and 22.3 nM.
In the same order, the values of `Cn1cc2c3c(c[nH]c3c1=O)C(c1cc(C(C)(C)C)cc(C(C)(C)C)c1)N(c1ccc(F)cc1F)c1ccc(CS(C)(=O)=O)cc1-2` (stereo not shown) [Example 223, 3-(3,5-di-tert-butylphenyl)-4-(2,4-difluorophenyl)-10-methyl-7-((methylsulfonyl)methyl)-3,4-dihydro-1H-1,4,10-triazadibenzo[cd,f]azulen-11(10H)-one] are above 238 nM and above 408 nM.
Consider `Cn1cc2c3c(c[nH]c3c1=O)CN(Cc1ccccc1OCC(N)=O)c1ccc(CS(C)(=O)=O)cc1-2` [Example 262, 2-(2-((10-methyl-7-((methylsulfonyl)methyl)-11-oxo-10,11-dihydro-1H-1,4,10-triazadibenzo[cd,f]azulen-4(3H)-yl)methyl)phenoxy)acetamide], for which the figures for the Ki in assay [1] and in assay [2] were 9.37 nM and 13.2 nM, respectively.
In the same order, the values of `CCS(=O)(=O)c1ccc2c(c1)-c1cn(C)c(=O)c3[nH]cc(c13)CN2[C@@H](C)c1ccccc1` [Example 267, (S)-7-(ethylsulfonyl)-10-methyl-4-(1-phenylethyl)-3,4-dihydro-1H-1,4,10-triazadibenzo[cd,f]azulen-11(10H)-one] are 72.7 nM and 94.7 nM.
In the same order, the values of `COC(=O)CCC1c2c[nH]c3c(=O)n(C)cc(c23)-c2cc(CS(C)(=O)=O)ccc2N1c1ccc(F)cc1F` [Example 268, (R)-methyl 3-(4-(2,4-difluorophenyl)-10-methyl-7-((methylsulfonyl)methyl)-11-oxo-3,4,10,11-tetrahydro-1H-1,4,10-triazadibenzo[cd,f]azulen-3-yl)propanoate] are 82.8 nM and 16.4 nM.
In the same order, the values of `Cn1cc(-c2[nH]c3c(=O)n(C)cc4c3c2CN(c2ccccn2)c2ccc(CS(C)(=O)=O)cc2-4)cn1` [Example 273, 10-methyl-2-(1-methyl-1H-pyrazol-4-yl)-7-((methylsulfonyl)methyl)-4-(pyridin-2-yl)-3,4-dihydro-1H-1,4,10-triazadibenzo[cd,f]azulen-11(10H)-one] are 1.12 nM and 0.88 nM.
`Cn1cc(-c2[nH]c3c(=O)n(C)cc4c3c2CN(c2ccccc2)c2ccc(S(C)(=O)=O)cc2-4)cn1` [Example 274, 10-methyl-2-(1-methyl-1H-pyrazol-4-yl)-7-(methylsulfonyl)-4-phenyl-3,4-dihydro-1H-1,4,10-triazadibenzo[cd,f]azulen-11(10H)-one]: the Ki in assay [1] stood at 2.83 nM; in assay [2], 1.56 nM.
The like results for `Cn1cc(-c2[nH]c3c(=O)n(C)cc4c3c2CN(c2ccccn2)c2ccc(S(C)(=O)=O)cc2-4)cn1` [Example 275, 10-methyl-2-(1-methyl-1H-pyrazol-4-yl)-7-(methylsulfonyl)-4-(pyridin-2-yl)-3,4-dihydro-1H-1,4,10-triazadibenzo[cd,f]azulen-11(10H)-one] were, in that order, 2.09 nM and 0.85 nM.
As for `Cn1cc(-c2[nH]c3c(=O)n(C)cc4c3c2CN(c2ccc(F)cc2)c2ccc(CS(C)(=O)=O)cc2-4)cn1` [Example 276, 4-(4-fluorophenyl)-10-methyl-2-(1-methyl-1H-pyrazol-4-yl)-7-((methylsulfonyl)methyl)-3,4-dihydro-1H-1,4,10-triazadibenzo[cd,f]azulen-11(10H)-one], the figures for the Ki in assay [1] and in assay [2] were 1.19 nM and 1.18 nM, respectively.
